Results from patent US10688093B2, “Methods, compositions, and uses of novel Fyn kinase inhibitors” (priority 2015, dated 2020).

Target: full-length recombinant human FYN A (Homo sapiens (Human), UniProt P06241)
Test: ADP-Glo Kinase Assay of FYN kinase inhibition
Assay type: biochemical
Settings: primary screen, initial compounds
In short: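 ADP-Glo read-out of peptide phosphorylation after 90 min RT with 12.5 pmol ATP and 100 pg 12-mer substrate. Enzyme was N-GST full-length human FYN A from insect cells, 3 pg, pre-incubated 30 min with compound, 10 points from 10 μM top, 3-fold steps; IC50 from curve.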

full-length recombinant human FYN A, sequence (P06241 whole entry): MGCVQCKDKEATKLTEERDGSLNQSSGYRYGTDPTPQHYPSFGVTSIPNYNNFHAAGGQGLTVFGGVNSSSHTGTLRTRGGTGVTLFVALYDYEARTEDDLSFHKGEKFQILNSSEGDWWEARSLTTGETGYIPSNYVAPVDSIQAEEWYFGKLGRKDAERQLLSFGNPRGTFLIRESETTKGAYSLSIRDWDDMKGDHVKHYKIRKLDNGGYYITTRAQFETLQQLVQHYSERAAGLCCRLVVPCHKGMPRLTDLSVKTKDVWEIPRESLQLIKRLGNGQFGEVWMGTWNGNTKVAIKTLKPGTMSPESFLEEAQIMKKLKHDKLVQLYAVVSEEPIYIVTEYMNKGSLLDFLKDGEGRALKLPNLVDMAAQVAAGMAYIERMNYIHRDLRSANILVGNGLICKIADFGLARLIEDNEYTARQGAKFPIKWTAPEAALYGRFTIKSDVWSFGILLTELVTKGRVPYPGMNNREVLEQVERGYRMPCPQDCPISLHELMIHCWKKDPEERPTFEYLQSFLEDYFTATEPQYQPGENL

Row | Structure (SMILES) | IC50 [nM]
1 | Clc1cccc(-c2ccc3ncc(-c4ccncc4)n3n2)c1 [Compound 319, 6-(3-chlorophenyl)-3-(4-pyridyl)imidazo [1,2-b]pyridazine] | 258
2 | CC(=O)Nc1cccc(-c2cnc3ccc(-c4cccc(C(F)(F)F)c4)nn23)c1 [Compound 322, N-[3-[6-[3-(trifluoromethyl)phenyl]imidazo [1,2-b]pyridazin-3-yl]phenyl] acetamide] | 1600
3 | c1ccc(-c2cnc3ccc(-c4ccncc4)nn23)cc1 [Compound 325, 3-phenyl-6-(4-pyridyl)imidazo [1,2-b]pyridazine] | 6930
4 | Oc1cccc(-c2ccc3ncc(-c4ccncc4)n3n2)c1 [Compound 326, 3-[3-(4-pyridyl)imidazo [1,2-b]pyridazin-6-yl]phenol] | 223
5 | COc1ccc(-c2cnc3ccc(-c4ccccc4)nn23)cc1OC [Compound 327, 3-(3,4-dimethoxy-phenyl)-6-phenyl-imidazo[1,2-b]pyridazine] | 420
6 | COc1cc(-c2ccc3ncc(-c4cccc(NC(C)=O)c4)n3n2)ccc1O [Compound 330, N-[3-[6-(4-hydroxy-3-methoxy-phenyl)imidazo [1,2-b]pyridazin-3-yl]phenyl] acetamide] | 93
7 | c1ccc(-c2cnc3ccc(-c4cccnc4)nn23)cc1 [Compound 331, 3-phenyl-6-(3-pyridyl)imidazo [1,2-b]pyridazine] | 3840
8 | CC(=O)Nc1cccc(-c2cnc3ccc(-c4ccoc4)nn23)c1 [Compound 335, N-[3-[6-(3-furyl)imidazo [1,2-b]pyridazin-3-yl]phenyl] acetamide] | 1260
9 | OCc1cccc(-c2cnc3ccc(-c4ccoc4)nn23)c1 [Compound 336, [3-[6-(3-furyl)imidazo [1,2-b]pyridazin-3-yl]phenyl] methanol] | 3990
10 | CC(=O)Nc1cccc(-c2ccc3ncc(-c4ccccc4)n3n2)c1 [Compound 339, N-[3-(3-phenylimidazo [1,2-b]pyridazin-6-yl)phenyl] acetamide] | 3660
11 | c1ccc(-c2ccc3ncc(-c4ccncc4)n3n2)cc1 [Compound 340, 6-phenyl-3-(4-pyridyl)imidazo [1,2-b]pyridazine] | 229
12 | c1cc(-c2cnc3ccc(-c4ccc5c(c4)OCO5)nn23)ccn1 [Compound 345, 6-(1,3-benzodioxol-5-yl)-3-(4-pyridyl)imidazo [1,2-b]pyridazine] | 217
13 | c1cc(-c2cnc3ccc(-c4ccoc4)nn23)ccn1 [Compound 346, 6-(3-furyl)-3-(4-pyridyl)imidazo [1,2-b]pyridazine] | 1020
14 | CC(=O)Nc1cccc(-c2cnc3ccc(-c4cccc(Cl)c4)nn23)c1 [Compound 347, N-[3-[6-(3-chlorophenyl)imidazo[1,2-b]pyridazin-3-yl]phenyl] acetamide] | 370
15 | OCc1cccc(-c2cnc3ccc(-c4cccc(O)c4)nn23)c1 [Compound 349, 3-[3-[3-(hydroxymethyl)phenyl]imidazo [1,2-b]pyridazin-6-yl]phenol] | 954

Second part, the molecule after the results:

Row | IC50 [nM] | Structure (SMILES)
16 | 1040 | COc1ccc(-c2cnc3ccc(-c4cccc(F)c4)nn23)cc1OC [Compound 316, 3-(3,4-dimethoxy-phenyl)-6-(3-fluorophenyl) imidazo[1,2-b]pyridazine]
17 | 494 | CC(=O)Nc1cccc(-c2cnc3ccc(-c4ccc(CO)cc4)nn23)c1 [Compound 317, N-[3-[6-[4-(hydroxymethyl)phenyl]imidazo [1,2-b]pyridazin-3-yl]phenyl] acetamide]
18 | 1750 | OCc1cccc(-c2cnc3ccc(-c4ccccc4)nn23)c1 [Compound 318, [3-(6-phenylimidazo [1,2-b]pyridazin-3-yl)phenyl] methanol]
19 | 222 | COc1cc(-c2ccc3ncc(-c4ccc(OC)c(OC)c4)n3n2)ccc1O [Compound 320, 4-[3-(3,4-dimethoxy-phenyl)imidazo [1,2-b]pyridazin-6-yl]-2-methoxy-phenol]
20 | 2850 | COc1ccccc1-c1ccc2ncc(-c3cccc(NC(C)=O)c3)n2n1 [Compound 321, N-[3-[6-(2-methoxyphenyl)imidazo[1,2-b]pyridazin-3-yl]phenyl] acetamide]
21 | 1070 | COc1ccccc1-c1ccc2ncc(-c3cccc(CO)c3)n2n1 [Compound 323, [3-[6-(2-methoxyphenyl)imidazo[1,2-b]pyridazin-3-yl]phenyl] methanol]
22 | 153 | COc1cc(-c2ccc3ncc(-c4cccc(CO)c4)n3n2)ccc1O [Compound 324, 4-[3-[3-(hydroxymethyl)phenyl]imidazo [1,2-b]pyridazin-6-yl]-2-methoxy-phenol]
23 | 1330 | COc1ccc(-c2cnc3ccc(-c4ccc(F)cc4)nn23)cc1OC [Compound 328, 3-(3,4-dimethoxy-phenyl)-6-(4-fluorophenyl) imidazo[1,2-b]pyridazine]
24 | 3130 | COc1cc(-c2ccc3ncc(-c4cccc(NC(C)=O)c4)n3n2)cc(OC)c1OC [Compound 329, N-[3-[6-(3,4,5-trimethoxyphenyl)imidazo[1,2-b]pyridazin-3-yl]phenyl] acetamide]
25 | 255 | OCc1ccc(-c2ccc3ncc(-c4ccncc4)n3n2)cc1 [Compound 332]
26 | 3120 | COc1ccc(-c2cnc3ccc(-c4ccccc4OC)nn23)cc1OC [Compound 333, 3-(3,4-dimethoxy-phenyl)-6-(2-methoxyphenyl) imidazo[1,2-b]pyridazine]
27 | 983 | COc1ccc(-c2cnc3ccc(-c4ccoc4)nn23)cc1OC [Compound 334, 3-(3,4-dimethoxy-phenyl)-6-(3-furyl)imidazo [1,2-b]pyridazine]
28 | 398 | CN(C)c1ccc(-c2ccc3ncc(-c4ccncc4)n3n2)cc1 [Compound 337, N,N-dimethyl-4-[3-(4-pyridyl)imidazo[1,2-b]pyridazin-6-yl]aniline]
29 | 3040 | CS(=O)(=O)c1ccc(-c2ccc3ncc(-c4cccc(CO)c4)n3n2)cc1 [Compound 338, [3-[6-(4-methylsulfonyl-phenyl)imidazo [1,2-b]pyridazin-3-yl]phenyl] methanol]
30 | 356 | Fc1cccc(-c2ccc3ncc(-c4ccncc4)n3n2)c1 [Compound 341, 6-(3-fluorophenyl)-3-(4-pyridyl) imidazo[1,2-b]pyridazine]
31 | 952 | COc1cccc(-c2ccc3ncc(-c4ccc(OC)c(OC)c4)n3n2)c1 [Compound 342, 3-(3,4-dimethoxy-phenyl)-6-(3-methoxyphenyl) imidazo[1,2-b]pyridazine]
32 | 614 | COc1cncc(-c2ccc3ncc(-c4cccc(NC(C)=O)c4)n3n2)c1 [Compound 343, N-[3-[6-(5-methoxy-3-pyridyl)imidazo [1,2-b]pyridazin-3-yl]phenyl] acetamide]
33 | 2140 | COc1cncc(-c2ccc3ncc(-c4cccc(CO)c4)n3n2)c1 [Compound 344]
34 | 409 | COc1cccc(-c2ccc3ncc(-c4cccc(NC(C)=O)c4)n3n2)c1 [Compound 348, N-[3-[6-(3-methoxyphenyl)imidazo[1,2-b]pyridazin-3-yl]phenyl] acetamide]
35 | 2140 | NC(=O)c1ccc(-c2ccc3ncc(-c4ccccc4)n3n2)cc1 [Compound 350, 4-(3-phenylimidazo [1,2-b]pyridazin-6-yl)benzamide]
36 | 915 | Oc1cccc(-c2ccc3ncc(-c4ccc5c(c4)OCO5)n3n2)c1 [Compound 351, 3-[3-(1,3-benzodioxol-5-yl)imidazo[1,2-b]pyridazin-6-yl]phenol]
